Structures can show the parent of a compound that is named as a salt.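 How tested: cells in 96-well plates exposed to compound for 48 hours at five concentrations. Abbreviation: GI50, concentration required for 50% inhibition of growth.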 Active and inactive are the calls of the source. Cut-off read from the data, not from the text of the source: active = GI50 up to about 1.1 µM and inactive = higher.

We go through 10 compounds from ChEMBL document CHEMBL1201862, “PubChem BioAssay data set” (2004).

Test systems include 786-0; SNB-19; RXF 393; OVCAR-8; SF-539; BT-549; RPMI-8226; CCRF-CEM; UACC-257; HCC 2998; HOP-92; HL-60; COLO 205; OVCAR-4; IGROV-1; UO-31; NCI-H522; MCF7; MDA-MB-231.
What all share (experiment): inhibition of tumour cell growth, NCI panel, 48 h

Turning to `C[C@@H]1CCC[C@]2(C)O[C@H]2CC[C@@](C)(O)[C@@H]2CC3=C(CO)C(=O)O[C@H]3[C@H]1O2`, the GI50 in the assay with 786-0, in the assay on SNB-19, in the assay with RXF 393, with OVCAR-8, in the assay with SF-539 and in the assay on BT-549 was > 50 µM (inactive) throughout. Further, the GI50 is 28.1 µM (inactive) in the assay with RPMI-8226; 34.1 µM (inactive) with CCRF-CEM; > 50 µM (inactive) in the assay on UACC-257; > 50 µM (inactive) with HCC 2998; > 50 µM (inactive) in the assay with HOP-92; > 5 µM (inactive) in the assay with HL-60. Further, the GI50 in the assay with COLO 205 was > 50 µM (inactive); with OVCAR-4 it was > 50 µM (inactive); with IGROV-1 it was 25.5 µM (inactive); in the assay on UO-31, > 50 µM (inactive); with NCI-H522 it was 28.4 µM (inactive); in the assay with MCF7, > 50 µM (inactive). The GI50 with MDA-MB-231 is > 50 µM (inactive).
In the case of `CCOC(=O)C1=C(C)N(Cc2ccccc2)C2(O)C=CC(O)=C3C(=O)c4ccccc4C(=O)C312` (stereo not given), the GI50 in the assay on 786-0 is 13.4 µM (inactive); in the assay on SNB-19 it was 26.5 µM (inactive); in the assay on RXF 393 it was 3.37 µM (inactive); in the assay with OVCAR-8, 19.1 µM (inactive); in the assay with SF-539, 16.3 µM (inactive); with BT-549, 0.541 µM (active). Also, the GI50 with RPMI-8226 is 9.42 µM (inactive); in the assay with CCRF-CEM, 8.61 µM (inactive); in the assay with UACC-257, 17.2 µM (inactive); with HCC 2998, 17 µM (inactive); with HOP-92 it was 17.2 µM (inactive); in the assay on HL-60, 15.1 µM (inactive). In addition, the GI50 in the assay on COLO 205 was 16.8 µM (inactive); in the assay with OVCAR-4, 15.4 µM (inactive); in the assay on IGROV-1 it was 4.16 µM (inactive); in the assay on UO-31 it was 9.73 µM (inactive); with NCI-H522 it was 11.9 µM (inactive); in the assay with MCF7, 0.128 µM (active). Moreover, in the assay on MDA-MB-231, the GI50 was 15.3 µM (inactive).
For `CC1=C(C2=C(C)C(=O)C(=O)c3cc(C)ccc32)c2ccc(C)cc2C(=O)C1=O`, the GI50 with 786-0 was 0.318 µM (active); in the assay on SNB-19, 0.15 µM (active); with RXF 393, 0.234 µM (active); with OVCAR-8 it was 0.245 µM (active); in the assay on SF-539, 0.182 µM (active); with BT-549 it was 0.19 µM (active). Further, the GI50 in the assay on RPMI-8226 is 0.333 µM (active); in the assay on CCRF-CEM, 0.152 µM (active); with UACC-257, 0.193 µM (active); in the assay on HCC 2998 it was 0.155 µM (active); with HOP-92, 0.174 µM (active); in the assay on HL-60 it was 0.0199 µM (active). For the same compound, the GI50 in the assay on COLO 205 is 0.269 µM (active); in the assay with OVCAR-4, 0.221 µM (active); in the assay with IGROV-1, 0.282 µM (active); with UO-31, 0.178 µM (active); in the assay with NCI-H522, 0.21 µM (active); in the assay on MCF7 it was 0.218 µM (active). Moreover, in the assay with MDA-MB-231, the GI50 was 0.283 µM (active).
Regarding `CN(C)c1ccc(/C=C/C=C(/C#N)c2ccccc2)cc1`, the GI50 with 786-0 is 28.1 µM (inactive); with SNB-19, 30.1 µM (inactive); with RXF 393, 36.8 µM (inactive); in the assay on OVCAR-8 it was 33 µM (inactive); with SF-539, 16.4 µM (inactive); in the assay on BT-549 it was > 100 µM (inactive). The GI50 was 21.9 µM (inactive) with RPMI-8226; 22.3 µM (inactive) with CCRF-CEM; 40.7 µM (inactive) in the assay with UACC-257; 30.3 µM (inactive) in the assay on HCC 2998; 78.7 µM (inactive) with HOP-92; 2.74 µM (inactive) in the assay on HL-60. Also, the GI50 was 20.4 µM (inactive) in the assay on COLO 205; > 38.6 µM (inactive) with OVCAR-4; 21.4 µM (inactive) with IGROV-1; > 46 µM (inactive) with UO-31; 10.5 µM (inactive) in the assay with NCI-H522; 17.7 µM (inactive) in the assay on MCF7. For the same compound, the GI50 with MDA-MB-231 was 37.8 µM (inactive).
Turning to `C[C@]12CC[C@H]3[C@@H](CC=C4C[C@@H](O)CC[C@@]43C)[C@@H]1C/C(=C/c1ccccc1)[C@@H]2O`, the GI50 with 786-0 was 22.1 µM (inactive); in the assay on SNB-19 it was 22.4 µM (inactive); in the assay on RXF 393, > 25.1 µM (inactive); in the assay on OVCAR-8, 20.9 µM (inactive); with SF-539, 30.7 µM (inactive); with BT-549, 24.1 µM (inactive). In addition, the GI50 in the assay with RPMI-8226 was > 32.1 µM (inactive); in the assay with CCRF-CEM, 14.6 µM (inactive); in the assay on UACC-257 it was 15.6 µM (inactive); in the assay with HCC 2998, 17.9 µM (inactive); in the assay on HOP-92, 32.4 µM (inactive); in the assay on HL-60 it was > 43 µM (inactive). The GI50 in the assay on COLO 205 was > 53.6 µM (inactive); with OVCAR-4, 19.2 µM (inactive); in the assay with IGROV-1 it was 11.8 µM (inactive); in the assay on UO-31 it was 18.1 µM (inactive); in the assay on NCI-H522, 14.7 µM (inactive); with MCF7, > 33 µM (inactive). For the same compound, the GI50 with MDA-MB-231 was 43.1 µM (inactive).
Consider `CC(C)CC(NC(=O)C(CSc1ccc([N+](=O)[O-])cc1)Cc1ccccc1)C(=O)Nc1ccccc1` (stereo not given), for which the GI50 in the assay on 786-0 is 44.7 µM (inactive); in the assay on SNB-19, 45.5 µM (inactive); in the assay on RXF 393, > 100 µM (inactive); with OVCAR-8, 48.8 µM (inactive); in the assay on SF-539, 47.9 µM (inactive); with BT-549, 12.3 µM (inactive). The GI50 in the assay with RPMI-8226 is > 100 µM (inactive); in the assay on CCRF-CEM, 33.1 µM (inactive); with UACC-257, > 100 µM (inactive); in the assay on HCC 2998, > 100 µM (inactive); with HOP-92, > 100 µM (inactive); in the assay with HL-60, 40.9 µM (inactive). The GI50 was > 100 µM (inactive) in the assay with COLO 205; 35.1 µM (inactive) in the assay with OVCAR-4; 46.6 µM (inactive) with IGROV-1; 43.1 µM (inactive) in the assay with UO-31; 64.9 µM (inactive) with NCI-H522; 63.7 µM (inactive) in the assay with MCF7. For the same compound, the GI50 with MDA-MB-231 is > 100 µM (inactive).
Regarding `Cc1ccc(S(=O)(=O)Nn2c(S)c(C#N)c(-c3ccc(N(C)C)cc3)c(C#N)c2=O)cc1`, the GI50 in the assay with 786-0 is 28.6 µM (inactive); with SNB-19 it was 43 µM (inactive); in the assay on RXF 393, 19.3 µM (inactive); in the assay with OVCAR-8, 15.9 µM (inactive); with SF-539, 19 µM (inactive); in the assay on BT-549 it was 22.2 µM (inactive). The GI50 is 15.6 µM (inactive) in the assay on RPMI-8226; 5.57 µM (inactive) with CCRF-CEM; 51.4 µM (inactive) with UACC-257; 38.2 µM (inactive) in the assay on HCC 2998; 29.6 µM (inactive) in the assay on HOP-92; 20.7 µM (inactive) in the assay with HL-60. Also, the GI50 was 22 µM (inactive) with COLO 205; 17.1 µM (inactive) with OVCAR-4; 10.8 µM (inactive) with IGROV-1; 16.9 µM (inactive) in the assay with UO-31; 14.5 µM (inactive) in the assay on NCI-H522; 30.8 µM (inactive) in the assay on MCF7. In addition, the GI50 with MDA-MB-231 was > 100 µM (inactive).
As for `CO[C@@H]1C[C@H]2N3CC[C@@]2(c2cc4c(cc2C3)OCO4)[C@H]2O[C@@H]12`, the GI50 in the assay with 786-0 was > 100 µM (inactive); with SNB-19, > 100 µM (inactive); in the assay with RXF 393 it was > 100 µM (inactive); in the assay with OVCAR-8 it was > 100 µM (inactive); in the assay on SF-539 it was 0.603 µM (active); in the assay on BT-549, > 100 µM (inactive). Also, the GI50 with RPMI-8226, in the assay on CCRF-CEM, in the assay on UACC-257, with HCC 2998, in the assay with HOP-92 and with HL-60 was > 100 µM (inactive) in each case. Also, the GI50 was 0.851 µM (active) in the assay on COLO 205; > 100 µM (inactive) in the assay on OVCAR-4; > 100 µM (inactive) with IGROV-1; > 100 µM (inactive) in the assay with UO-31; > 100 µM (inactive) in the assay with NCI-H522; > 100 µM (inactive) in the assay on MCF7. Further, the GI50 in the assay with MDA-MB-231 is > 100 µM (inactive).
For the compound `NC(Cc1ccccc1)C(=O)O` (stereo not drawn) [DL-PHENYLALANINE], the GI50 in the assay with 786-0, with SNB-19, in the assay on RXF 393, with OVCAR-8, in the assay on SF-539 and with BT-549 was > 100 µM (inactive) throughout. In addition, the GI50 with RPMI-8226, in the assay with CCRF-CEM, in the assay on UACC-257, with HCC 2998, in the assay on HOP-92 and in the assay on HL-60 was > 100 µM (inactive) throughout. Further, the GI50 with COLO 205, in the assay with OVCAR-4, in the assay with IGROV-1, with UO-31, with NCI-H522 and in the assay on MCF7 was > 100 µM (inactive) each time. Besides, the GI50 in the assay on MDA-MB-231 is > 100 µM (inactive).
In the case of `CN[C@@H]1[C@H](O)[C@H](NC)[C@H]2O[C@@]3(O)C(=O)C[C@@H](C)O[C@H]3O[C@@H]2[C@H]1O` [SPECTINOMYCIN SULFATE], the GI50 is > 10 µM (inactive) with 786-0; > 100 µM (inactive) with SNB-19; > 100 µM (inactive) in the assay with RXF 393; > 100 µM (inactive) in the assay with OVCAR-8; > 100 µM (inactive) in the assay on SF-539; > 100 µM (inactive) in the assay on BT-549. Also, the GI50 with RPMI-8226, in the assay with CCRF-CEM, in the assay on UACC-257, with HCC 2998, with HOP-92 and with HL-60 was > 100 µM (inactive) throughout. The GI50 in the assay with COLO 205, in the assay on OVCAR-4, with IGROV-1, with UO-31, in the assay on NCI-H522 and with MCF7 was > 100 µM (inactive) each time. Moreover, the GI50 in the assay with MDA-MB-231 is > 100 µM (inactive).
